Columns and labels:
[1] = test system: HCT-8 (Human colorectal cancer cell lines); type: cell-based
Procedure: (§1) In example one, pharmaceutical composition was screened and discovered natural small molecules that inhibit T cell survival and proliferation to use as therapeutics for chronic inflammatory diseases and cancers as taught in FIG. 1, T cells were stimulated with or without the indicated amount of DMGV and survival was measured by flow cytometry after 3 days. […] Solid tumor cancer cell lines were incubated with different doses of DMGV or 5-FU (5-fluorouracil), and cells survival was measured by CCK-8 after 2 days.

[2] = test system: HCA-7 (colorectal cancer cell lines); assay: Solid tumor cell survival by CCK-8 after 2 days, HCA-7; type: cell-based
Procedure: as §1

[3] = test system: AGXT2^+/+ and AGXT2^−/− T cells; assay: Survival of AGXT2^+/+ and AGXT2^−/− T cells, 4 days, flow cytometry; type: cell-based, mice; details: DMGV: 504, 4 days
Procedure: To investigate the role of AGXT2 and DMGV in T cell survival, AGXT2^+/+ and AGXT2^−/− T cells were stimulated with the indicated compounds (ADMA: 10 μM, SDMA: 10 μM, DMGV: 504, MitoQ: 100 nM) for 4 days and the survival rate was measured by flow cytometry.

calcium flux = assay: Calcium flux by flow cytometry using Fluo-8; type: cell-based; details: Fluo-8
Procedure: As a sudden influx of calcium to the mitochondria can cause ROS induction, we tested whether DMGV regulates calcium flux to induce ROS. Calcium flux was measured by flow cytometry using the calcium indicator Fluo-8. While stimulation of T cell receptor (TCR) by a stimulatory antibody triggered calcium release from ER (efflux), which in turn induced calcium influx from the outside to cytosol (influx). […] Because of the close proximity between ER and mitochondria, calcium efflux from ER leads to calcium import to the mitochondria, which can be mediated by MCU.

chronic colitis = assay: Chronic colitis by adoptive transfer of naïve CD4+ T cells; type: in vivo, Rag2^−/− mice
Source text: The present invention tested if DMGV suppresses chronic T cell-mediated inflammation in two mouse models. In the first model, adoptive transfer of naïve CD4^+ T cells from syngeneic mice into immunodeficient (Rag2^−/−) mice induces chronic colitis similar to inflammatory bowel diseases (IBD) in humans, due to differentiation of T cells into pathogenic Th17 cells in the absence of regulatory T cells (Tregs). After adoptively transferring naïve CD4^+ T cells from syngeneic mice to recombinase activating gene-2-deficient (Rag2^−/−) mice to induce colitis, the mice showing the disease symptom in the form of loose stool around 4-6 weeks were randomly divided into two groups. One group (n=9) was treated with DMGV (i.p. 750 μg/mouse, twice a week) and the control group (n=11) with PBS up to 40 days and mortality was observed.

dimethylguanidino valeric acid [DMGV]
inhibition of HCT-8 proliferation compared with 5-FU [1]: inhibited proliferation of HCT-8 better than a known chemotherapeutic drug, 5-FU
proliferation of HCT-8 ([1]; CCK-8 after 2 days): suppresses proliferation
suppression of HCT-8 proliferation, 3D versus 2D culture ([1]; Matrigel (3D) vs 2-dimensional culture): much more effective in suppressing proliferation of HCT-8 cultured in Matrigel™ (3D) than 2D
proliferation of HCA-7 [2]: suppresses proliferation
survival of AGXT2^+/+ T cells [3]: inhibited survival of AGXT2^+/+ T cells
survival of AGXT2^−/− T cells [3]: rescued AGXT2^−/− T cells
calcium efflux (release from ER) (calcium flux): induced efflux
calcium influx from the outside to cytosol (calcium flux): not influx
survival (mortality) of colitis mice (chronic colitis; i.p. 750 μg/mouse, twice a week, up to 40 days, n=9): all except for one mouse survived
normalized IL-17A+ T cell number in colonic tissue (chronic colitis; survived mice, compared to the control group): significantly lower
